Data from ChEMBL document CHEMBL2150933 (J Med Chem, 2012).
The source made the active and inactive calls. The rule behind the calls is not given here.

How the values were obtained:
CCRF-CEM = assay: Cytotoxicity against human CCRF-CEM cells after 48 hrs by SRB assay; format: functional
BT-549 = assay: Cytotoxicity against human BT549 cells after 48 hrs by SRB assay; format: functional; settings: BT-549, 48 h
HOP-62 = assay: Cytotoxicity against human HOP62 cells after 48 hrs by SRB assay; format: functional; settings: HOP-62, 48 h
M14 = assay: Cytotoxicity against human M14 cells after 48 hrs by SRB assay; format: functional; settings: M14, 48 h
HT-29 = assay: Cytotoxicity against human HT-29 cells after 48 hrs by SRB assay; format: functional; settings: HT-29, 48 h
OVCAR-4 = assay: Cytotoxicity against human OVCAR4 cells after 48 hrs by SRB assay; format: functional; settings: OVCAR-4, 48 h
SF-268 = assay: Cytotoxicity against human SF268 cells after 48 hrs by SRB assay; format: functional; settings: SF-268, 48 h
SN12C = assay: Cytotoxicity against human SN12C cells after 48 hrs by SRB assay; format: functional
MDA-MB-435 = assay: Cytotoxicity against human MDA-MB-435 cells after 48 hrs by SRB assay; format: functional; settings: MDA-MB-435, 48 h
RXF 393 = assay: Cytotoxicity against human RXF393 cells after 48 hrs by SRB assay; format: functional; settings: RXF 393, 48 h
MCF7 = assay: Cytotoxicity against human MCF7 cells after 48 hrs by SRB assay; format: functional; settings: MCF7, 48 h
SK-MEL-5 = assay: Cytotoxicity against human SK-MEL-5 cells after 48 hrs by SRB assay; format: functional; settings: SK-MEL-5, 48 h, read-out: pGI50 (converted)
T47D = assay: Cytotoxicity against human T47D cells after 48 hrs by SRB assay; format: functional
A549 [1] = assay: Cytotoxicity against human A549 cells after 48 hrs by SRB assay; format: functional; settings: A549, 48 h, read-out: pGI50 (converted)
DU-145 = assay: Cytotoxicity against human DU145 cells after 48 hrs by SRB assay; format: functional; settings: DU-145, 48 h
SNB-75 = assay: Cytotoxicity against human SNB75 cells after 48 hrs by SRB assay; format: functional; settings: SNB-75, 48 h
OVCAR-8 = assay: Cytotoxicity against human OVCAR8 cells after 48 hrs by SRB assay; format: functional; settings: OVCAR-8, 48 h, read-out: pGI50 (converted)
A498 = assay: Cytotoxicity against human A498 cells after 48 hrs by SRB assay; format: functional; settings: A498, 48 h
[2] = Cytotoxicity against human 786-O cells after 48 hrs by SRB assay; format: functional; settings: 786-0, 48 h
RPMI-8226 = assay: Cytotoxicity against human RPMI8226 cells after 48 hrs by SRB assay; format: functional; settings: RPMI-8226, 48 h
UACC-257 = assay: Cytotoxicity against human UACC257 cells after 48 hrs by SRB assay; format: functional; settings: UACC-257, 48 h
OVCAR-3 = assay: Cytotoxicity against human OVCAR3 cells after 48 hrs by SRB assay; format: functional; settings: OVCAR-3, 48 h
K562 = assay: Cytotoxicity against human K562 cells after 48 hrs by SRB assay; format: functional; settings: K562, 48 h
COLO 205 [3] = assay: Cytotoxicity against human COLO205 cells after 72 hrs by MTT assay; format: functional; settings: COLO 205, 72 h
SK-OV-3 = assay: Cytotoxicity against human SKOV3 cells after 48 hrs by SRB assay; format: functional; settings: SK-OV-3, 48 h
TK-10 = assay: Cytotoxicity against human TK10 cells after 48 hrs by SRB assay; format: functional; settings: TK-10, 48 h
NCI-H460 = assay: Cytotoxicity against human NCI-H460 cells after 48 hrs by SRB assay; format: functional; settings: NCI-H460, 48 h
HCC 2998 = assay: Cytotoxicity against human HCC2998 cells after 48 hrs by SRB assay; format: functional; settings: HCC 2998, 48 h
IGROV-1 = assay: Cytotoxicity against human IGROV1 cells after 48 hrs by SRB assay; format: functional; settings: IGROV-1, 48 h, read-out: pGI50 (converted)
PC-3 = assay: Cytotoxicity against human PC3 cells after 48 hrs by SRB assay; format: functional; settings: PC-3, 48 h
HOP-92 = assay: Cytotoxicity against human HOP92 cells after 48 hrs by SRB assay; format: functional; settings: HOP-92, 48 h
UACC-62 = assay: Cytotoxicity against human UACC62 cells after 48 hrs by SRB assay; format: functional; settings: UACC-62, 48 h
LOX IMVI = assay: Cytotoxicity against human LOXIMVI cells after 48 hrs by SRB assay; format: functional
NCI-H226 = assay: Cytotoxicity against human NCI-H226 cells after 48 hrs by SRB assay; format: functional; settings: NCI-H226, 48 h
Hs-578T = assay: Cytotoxicity against human Hs578T cells after 48 hrs by SRB assay; format: functional
MDA-MB-231 = assay: Cytotoxicity against human MDA-MB-231 cells after 48 hrs by SRB assay; format: functional; settings: MDA-MB-231, 48 h
EKVX = assay: Cytotoxicity against human EKVX cells after 48 hrs by SRB assay; format: functional
OVCAR-5 = assay: Cytotoxicity against human OVCAR5 cells after 48 hrs by SRB assay; format: functional; settings: OVCAR-5, 48 h
SW-620 = assay: Cytotoxicity against human SW620 cells after 48 hrs by SRB assay; format: functional; settings: SW-620, 48 h
SK-MEL-2 [4] = assay: Cytotoxicity against human SK-MEL-2 cells after 48 hrs by SRB assay; format: functional; settings: SK-MEL-2, 48 h
A549 [5] = assay: Cytotoxicity against human A549 cells after 72 hrs by MTT assay; format: functional; settings: A549, 72 h
SNB-19 = assay: Cytotoxicity against human SNB19 cells after 48 hrs by SRB assay; format: functional; settings: SNB-19, 48 h
SR = assay: Cytotoxicity against human SR cells after 48 hrs by SRB assay; format: functional
U-251 = assay: Cytotoxicity against human U251 cells after 48 hrs by SRB assay; format: functional; settings: U-251, 48 h, read-out: pGI50 (converted)
NCI-H23 = assay: Cytotoxicity against human NCI-H23 cells after 48 hrs by SRB assay; format: functional; settings: NCI-H23, 48 h
COLO 205 [6] = assay: Cytotoxicity against human COLO205 cells after 48 hrs by SRB assay; format: functional; settings: COLO 205, 48 h
CAKI-1 = assay: Cytotoxicity against human Caki1 cells after 48 hrs by SRB assay; format: functional; settings: CAKI-1, 48 h
HCT-15 = assay: Cytotoxicity against human HCT15 cells after 48 hrs by SRB assay; format: functional; settings: HCT-15, 48 h
HCT-116 = assay: Cytotoxicity against human HCT116 cells after 48 hrs by SRB assay; format: functional; settings: HCT-116, 48 h
MOLT-4 = assay: Cytotoxicity against human MOLT4 cells after 48 hrs by SRB assay; format: functional; settings: MOLT-4, 48 h
SK-MEL-28 = assay: Cytotoxicity against human SK-MEL-28 cells after 48 hrs by SRB assay; format: functional; settings: SK-MEL-28, 48 h
KM12 = assay: Cytotoxicity against human KM12 cells after 48 hrs by SRB assay; format: functional; settings: KM12, 48 h
BXPC-3 = assay: Cytotoxicity against human BxPC3 cells after 72 hrs by MTT assay; format: functional; settings: BXPC-3, 72 h
[7] = Toxicity in iv dosed CD1 mouse administered as single dose; format: organism-based; settings: in vivo
MDA-MB-468 = assay: Cytotoxicity against human MDA-MB-468 cells after 48 hrs by SRB assay; format: functional; settings: MDA-MB-468, 48 h
[8] = Cytotoxicity against human NCI-ADR-RES cells after 48 hrs by SRB assay; format: functional
UO-31 = assay: Cytotoxicity against human UO31 cells after 48 hrs by SRB assay; format: functional; settings: UO-31, 48 h
NCI-H522 = assay: Cytotoxicity against human NCI-H522 cells after 48 hrs by SRB assay; format: functional; settings: NCI-H522, 48 h
SF-295 = assay: Cytotoxicity against human SF295 cells after 48 hrs by SRB assay; format: functional; settings: SF-295, 48 h, read-out: pGI50 (converted)
ACHN = assay: Cytotoxicity against human ACHN cells after 48 hrs by SRB assay; format: functional
Malme-3M = assay: Cytotoxicity against human MALME-3M cells after 48 hrs by SRB assay; format: functional
HL-60 = assay: Cytotoxicity against human HL60 cells after 48 hrs by SRB assay; format: functional; settings: HL-60, 48 h
SF-539 = assay: Cytotoxicity against human SF539 cells after 48 hrs by SRB assay; format: functional; settings: SF-539, 48 h
SK-MEL-2 [9] = assay: Antitumor activity against human SK-MEL-2 cells xenografted in athymic nu/nu Harlan mouse assessed as tumor growth inhibition at 8 mg/kg, ip administered Q4D for 3 days relative to control; format: functional, organism-based; design: dose 8 mg/kg

## CO[C@H](C(=O)C(C)=O)[C@@H]1Cc2cc3cc(O[C@H]4C[C@@H](O[C@H]5C[C@@H](O)[C@H](O)[C@@H](C)O5)[C@H](O)[C@@H](C)O4)c(C)c(O)c3c(O)c2C(=O)[C@H]1O[C@H]1C[C@@H](O[C@H]2C[C@@H](O[C@H]3C[C@H](O)[C@H](O)[C@@H](C)O3)[C@H](O)[C@@H](C)O2)[C@H](O)[C@@H](C)O1
CCRF-CEM
  GI50: 24 nM
BT-549
  GI50: 13.5 nM
HOP-62
  GI50: 16.6 nM
M14
  GI50: 36.3 nM
HT-29
  GI50: 24.6 nM
OVCAR-4
  GI50: 72.4 nM
SF-268
  GI50: 18.6 nM
SN12C
  GI50: 24.6 nM
MDA-MB-435
  GI50: 25.1 nM
RXF 393
  GI50: 13.5 nM
MCF7
  GI50: 19.9 nM
SK-MEL-5
  GI50: 22.4 nM
T47D
  GI50: 33.9 nM
A549 [1]
  GI50: 24.6 nM
DU-145
  GI50: 25.1 nM
SNB-75
  GI50: 11 nM
OVCAR-8
  GI50: 25.7 nM
A498
  GI50: 47.9 nM
[2]
  GI50: 25.1 nM
RPMI-8226
  GI50: 15.8 nM
UACC-257
  GI50: 58.9 nM
OVCAR-3
  GI50: 19.9 nM
K562
  GI50: 19.5 nM
COLO 205 [3]
  GI50: 300 nM
SK-OV-3
  GI50: 25.1 nM
TK-10
  GI50: 85.1 nM
NCI-H460
  GI50: 17.8 nM
HCC 2998
  GI50: 12.9 nM
IGROV-1
  GI50: 23.4 nM
PC-3
  GI50: 22.9 nM
HOP-92
  GI50: 19.9 nM
UACC-62
  GI50: 13.5 nM
LOX IMVI
  GI50: 13.5 nM
NCI-H226
  GI50: 34.7 nM
Hs-578T
  GI50: 16.2 nM
MDA-MB-231; read-out: GI50
  GI50: 63 nM
MDA-MB-231; read-out: pGI50 (converted)
  GI50: 66.1 nM
EKVX
  GI50: 91.2 nM
OVCAR-5
  GI50: 30.9 nM
SW-620
  GI50: 24 nM
SK-MEL-2 [4]
  GI50: 15.1 nM
A549 [5]
  GI50: 300 nM
SNB-19
  GI50: 17 nM
SR
  GI50: 11.8 nM
U-251
  GI50: 17.4 nM
NCI-H23
  GI50: 14.8 nM
COLO 205 [6]; read-out: GI50
  GI50: 32 nM
COLO 205 [6]; read-out: pGI50 (converted)
  GI50: 30.2 nM
CAKI-1
  GI50: 126 nM
HCT-15
  GI50: 182 nM
HCT-116
  GI50: 14.8 nM
MOLT-4
  GI50: 27.5 nM
SK-MEL-28
  GI50: 20.9 nM
KM12
  GI50: 12.9 nM
BXPC-3
  GI50: 300 nM
[7]
  MTD: 4 mg/kg
MDA-MB-468
  GI50: 23.4 nM
[8]
  GI50: 1660 nM
UO-31
  GI50: 126 nM
NCI-H522
  GI50: 19.9 nM
SF-295
  GI50: 17 nM
ACHN
  GI50: 74.1 nM
Malme-3M
  GI50: 34.7 nM
HL-60
  GI50: 17.4 nM
SF-539
  GI50: 20.9 nM

## COc1cccc2c1C(=O)c1c(O)c3c(c(O)c1C2=O)C[C@@](O)(C(=O)CO)C[C@@H]3O[C@H]1C[C@H](N)[C@H](O)[C@H](C)O1
SK-MEL-2 [9]
  TGI: Active
